Measured values as given in patent publication US20220332839A1, “USE OF PRG4 TO TREAT CANCER” (Lubris LLC, priority 2019, published 2022).
pIC50: −log10 of the molar value. One block for each molecule: values may come before it.

Legend:
[1] = test system: MDA-MB-231 cell-derived organoids; experiment: Three-dimensional Matrigel culture, proportion of spherical vs invasive organoids; assay type: cell-based, human; conditions: for TGFβ-induced invasive growth of organoids: rhPRG4 0.1, 10, 100 μg/mL, 4-MU 0.5 mM
Experimental: For three-dimensional culture assays, 50 μl of ice-cooled 33% growth factor-reduced Matrigel (Corning Incorporated, USA) in complete growth medium, consisting of DMEM containing 10% FBS, penicillin, streptomycin and amphotericin B (Invitrogen, Canada), was added per well of a 96-well flat bottom, ultra-low attachment plate (BD Biosciences, Canada) followed by storing the plate for 1 hour in a 5% CO2 humidified incubator at 37° C. to allow formation of a 1 mm-thick Matrigel bed in the well. Next, approximately 400 isolated MDA-MB-231 cells, suspended in 50 μl ice-cooled 50% Matrigel in complete growth medium, were layered on top of the Matrigel bed per well of the 96-well plate and incubated inside 5% CO2 humidified incubator at 37° C. One hour post addition and 37° C. incubation of Matrigel-cells suspension, 50 μl of complete growth medium was added to cover the solidified Matrigel-cells mixture. The following day and, every third day, the three-dimensional cultures received 50 μl of fresh complete growth medium without or with specified reagents as listed in the figure descriptions. On Day 8 of culture, differential interference contrast (DIC) images were captured of 8 representative organoids from each well, using light microscopy at 30× objective (Olympus IX70, Canada). […] Number of smooth surfaced organoids without any protrusions, designated as “spherical” were counted out of eight representative images in each well and then percentage of spherical organoids in each condition were plotted in bar graphs. Each experiment was performed at least three independent times for statistical analyses.

CD44-IgG1Fc = target: T1, CD44-IgG1Fc (Homo sapiens, UniProt P16070); experiment: Direct ELISA: binding of coated macromolecules to CD44-IgG1Fc; conditions: for percentage binding to CD44 of enzyme-digested rhPRG4 compared to untreated control: coating 30 μg/mL, digestion 16 hours at 37° C.
T1 construct: purchased R & D systems
Experimental: High-binding microtiter plates (Corning, Sigma Aldrich, USA) were coated with rhPRG4 (Mr≅240 KDa), high molecular weight HA (HMW HA; Mr≅1,500 KDa) (R & D System, USA), medium molecular weight HA (MMW HA; Mr≅′300KDa) (R & D System) and vitronectin KDa) (Sigma Aldrich) at 400 μg/mL in PBS buffer (100 μL per well) overnight at 4° C. rhPRG4 is a full-length product produced by CHO-M cells (Lubris, Framingham, Mass., USA). Following washing with PBS+0.1% Tween 20, wells were blocked with 2% bovine serum albumin (BSA; 300 μL per well) for at least 2 hours at room temperature. CD44-IgG1Fc (R & D systems) or IgG1Fc (R & D systems), each at 1 μg/mL (100 μl per well), were added to the plate and incubated for 60 min at room temperature. Following washing with PBS+0.1% tween 20, anti-IgG1Fc-HRP (Sigma Aldrich) was added at 1:10,000 dilution (100 μL per well) and incubated for 60 min at room temp. Following washing with PBS+0.1% tween 20, the assay was developed using 1-step Turbo TMB ELISA reagent (ThermoScientific, USA) and absorbance was measured at 450 nm. The data represents an average of 4 independent assays, each with triplicate wells per group.
The concentration-dependent binding of rhPRG4, HMW HA and MMW HA to CD44 was performed by coating microtiter plates with 400, 200, 100, 20, 4, 2 and 0.1 μg/mL of the macromolecules. The assay was performed as described above. The absorbance values in the IgG1Fc wells were subtracted from the absorbance values in the CD44 IgG1Fc wells and the corrected CD44 IgG1Fc absorbance values were normalized to those of the 400 μg/mL rhPRG4 group and data was expressed as percentage binding to CD44. The concentration-dependent binding of rhPRG4, HMW HA and MMW HA to recombinant CD44 is depicted in FIG. 1B. […] The data represents an average of 4 independent assays, each with triplicate wells per group.
rhPRG4 was digested using sialidase A (Prozyme, USA), O-glycosidase (New England Biolabs, USA) or a combination of sialidase A and O-glycosidase for 16 hours at 37° C. In the sialidase A digestion, 12 μL of the enzyme (1U/200 μL) was added to rhPRG4 in a total reaction volume of 180 μL and a rhPRG4 final concentration of 300 μg/mL. In the O-glycosidase digestion, 4.8 μL of the enzyme (40million units/mL) was added to rhPRG4 in a total reaction volume of 180 μL and a rhPRG4 final concentration of 300 μg/mL under non-denaturing conditions. In the sialidase-A and O-glycosidase digestion, the enzymes were used in volumes identical to the ones stated above and incubated with rhPRG4 in a total reaction volume and final rhPRG4 concentration as stated above. The effect of sialidase-A and O-glycosidase digestions on rhPRG4 apparent molecular weight was determined by SDS-PAGE using 4-12% Bis-Tris gel (NuPage, life technologies, USA). A total of 20 μL of rhPRG4 or enzyme-digested rhPRG4 was run under reducing conditions ([…] for 60 min) followed by staining using Gelcode Blue Stain (Thermo Scientific, USA). Binding of enzymatically digested rhPRG4 to CD44 was compared to undigested rhPRG4 using the direct ELISA approach described above and using an rhPRG4 coating concentration of 30 μg/mL. Data represents the average of 4 independent experiments, each with triplicate wells per group.

[2] = test system: HCC cells (HLE, HLF, PLC/DC/19, Hep3B, PLC/PRF/5); experiment: 72-hour proliferation assay, all HCC cells; assay type: cell-based, human; conditions: Homo sapiens, same experimental conditions
Experimental: (§1) Proliferation assay: In 100 μl complete medium, 3,000 cells were seeded in wells of a 96-well plate and left overnight to allow complete attachment. The next day (at time t=0 hours), the medium was removed and replaced with 100 μl of fresh medium in the presence/absence of Sorafenib (2.5 μM), Regorafenib (2.5 μM), rhPRG4 (12.5 to 100 μg/ml). Dimethyl sulfoxide (DMSO) and PBS+0.01% Tween-20 were used as vehicles of Sorafenib/Regorafenib, and rhPRG4, respectively. Cells in triplicate wells for each cell line were fixed at t=0 hours with 4% paraformaldehyde (PFA, pH 7.6, 10 min incubation), then stained with crystal violet (CV) and thoroughly washed to remove the excess staining. After 72 hours, the cells were fixed by adding 100 μl of 4% PFA directly to the medium (2% final PFA concentration, 20 min incubation), and processed for CV staining as previously described. Then, 100 or 200 μl of 1% sodium dodecyl-sulphate were added to the wells and the plates were left under shaking until complete CV release from stained cells. Optical density was at 595 nm wavelength measured using a plate reader.

CD44-shRNA HCC cells = experiment: 72-hour proliferation assay, CD44-silenced HCC cells; assay type: cell-based, human; conditions: 2.5 μM drug; rhPRG4 0 to 100 μg/ml; p<0.05 to p<0.001
Text: Stable CD44 silencing: HLE and HLF cell lines were transduced with lentiviral particles carrying control non-targeting (V), or specific CD44-targeting shRNA sequences (A to D), and selected with puromycin dihydrochloride (Thermo Fisher Scientific) to obtain stable CD44 silencing, according to manufacturer instructions (OriGene Technologies, Inc., Rockville, Md. 20850, USA). Control-shRNA sequence (V) and CD44-shRNA sequence B were used in all the experiments involving CD44 downregulation.
as §1, with “After 72 hours, the cells were fixed by adding 100 μl of 4% PFA directly to the medium (2% final PFA concentration, 20 min incubation), and processed for CV staining as previously described. Then, 100 or 200 μl of 1% sodium dodecyl-sulphate were added to the wells and the plates were left under shaking until complete CV release from stained cells.” left out

MDA-MB-231 cells = experiment: In vitro trans-well invasion assay; assay type: cell-based, human; conditions: 100 pM TGFβ; 400 μg/mL LMWHA
Experimental: Overnight 0.2% FBS-containing DMEM incubated, i.e. serum-starved, MDA-MB-231 cells were used for the transwell invasion using polycarbonate filters (24-well insert, pore size 8 μm; BD Biosciences, Canada). Prior to addition of cells, each insert was placed within a well of a 24-well tissue culture plate and equilibrated with 0.5 mL serum-free DMEM, added both to the upper and lower chambers at 37° C. for 2 h. The equilibration media was then gently removed and upper chamber surface of the insert was coated with 50 μL of 3% Matrigel and allowed to solidify at 37° C. for 1 h. 1×10^5 serum-starved MDA-MB-231 cells were resuspended in 0.5 mL of serum-free DMEM and added to the upper Matrigel-coated chamber. 500 μL complete growth medium alone or containing specific reagents, as described in the respective figure descriptions, was added to the lower chambers. Cells were allowed to invade the matrix for 12 h at 37° C. after which non-adherent cells were removed by PBS washing of cell layers on the upper chamber three times. During the second wash a cotton tip applicator was used to gently scrape away the adherent cells on the upper surface of the membrane. Invading cells were fixed by immersing the transwell inserts in 100% methanol for 10 minutes at −20° C., followed by staining with 0.5% crystal violet dye (EMD Millipore, Canada) for 1 h at room temperature. Eight randomly chosen fields of each stained membrane were imaged at 10× objective of a DIC microscope (Olympus IX70) coupled to a digital camera. Cell numbers were obtained by counting the number of crystal violet stained cells in each field using a handheld counter. The average cell numbers for all images per treatment conditions were calculated and used for further statistical analysis. Each experiment was performed at least three independent times.

lubricin (PRG4) mRNA = experiment: PRG4 mRNA expression in CAFs and ex vivo HCC specimens; assay type: cell-based, human
Experimental: RNA extraction and cDNA synthesis: […] of frozen ex-vivo treated HCC tissues were ground with a mortar-pestle in the presence of liquid nitrogen until a thin powder was obtained. The ground tissues were lysed with 0.5-1 ml of RLT buffer+1% (BME) and then processed according to the manufacturer's recommendations (RNeasy kit, Qiagen). […] The obtained RNA was assayed for quality and concentration using the NanoDrop 2000/2000c (Thermo Fisher Scientific). cDNA was synthetized using the High Capacity cDNA reverse transcription kit (Thermo Fisher Scientific), according to relative datasheet.
Real time PCR: One ng/μl of cDNA was used in total 20 μl reaction mix in the presence of 500 nM of each forward and reverse primer referred to a specific gene of interest, and 2×SYBR green master mix (Bio-Rad). The reaction was conducted in a CFX96 Touch Real-Time Detection System (Bio-Rad).
CAFs isolation: Immediately after surgical resection, HCC tumoral and peritumoral specimens were minced into 0.5-1 cm pieces and left in MACS Tissue Storage Solution (Miltenyi Biotec). The tissues were then further cut into smaller size pieces (1-2 mm), washed three times in Hanks balanced salt solution (HBSS), and then incubated in HBSS in the presence of type IV collagenase (Thermo Fisher Scientific) and 3 mM CaCl2 at 37° C. under gentle rotation for 4 hours. At the end of this step, the dissociation was mechanically facilitated by pipetting up-down the digested tissues with a large size orifice 50 ml pipette. The floating cells were collected and washed three times with HBSS and seeded in normal culture conditions in IMDM+20% FBS. The decanted, partially digested tissue specimens were subjected to a second round of digestion (as previously described). The resulting dissociated cells were washed with HBSS and cultured in IMDM+20% FBS. […] The presence of minimal contaminating non-fibroblastic cells (mostly cancerous hepatocytes, cholangiocytes and macrophages) was evaluated using antibodies to EpCAM, CD45, and CD11b.

T1 sequence (P16070 with tags, fused parts or gaps limits assumed): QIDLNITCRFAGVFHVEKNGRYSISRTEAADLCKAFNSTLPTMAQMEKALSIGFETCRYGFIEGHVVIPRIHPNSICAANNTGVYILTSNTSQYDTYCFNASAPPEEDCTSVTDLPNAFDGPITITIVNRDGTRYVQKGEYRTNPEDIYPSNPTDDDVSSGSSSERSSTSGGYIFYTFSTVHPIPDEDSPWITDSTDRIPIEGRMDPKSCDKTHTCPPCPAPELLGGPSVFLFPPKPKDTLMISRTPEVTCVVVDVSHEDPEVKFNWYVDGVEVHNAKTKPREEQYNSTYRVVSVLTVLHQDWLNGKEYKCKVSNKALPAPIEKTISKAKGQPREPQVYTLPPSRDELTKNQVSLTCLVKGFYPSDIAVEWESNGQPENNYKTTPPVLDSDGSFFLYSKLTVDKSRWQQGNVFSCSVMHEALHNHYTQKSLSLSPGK

Molecule: Cc1cc(=O)oc2cc(O)ccc12 [4-MU, 4-methylumbelliferone, reference compound]
TGFβ-induced invasive growth of organoids ([1]; 100 pM TGFβ, 8-day, KI 10 μM): suppressed TGFβ-induced invasive growth

percentage binding to CD44 of enzyme-digested rhPRG4 compared to untreated control (CD44-IgG1Fc): significant increase
Molecule: O-glycosidase digested rhPRG4: rhPRG4 digested using O-glycosidase for 16 hours at 37° C.

percentage binding to CD44 of enzyme-digested rhPRG4 compared to untreated control (CD44-IgG1Fc): significant increase
Molecule: sialidase-A digested rhPRG4: rhPRG4 digested using sialidase A for 16 hours at 37° C.

450 nm absorbance in the CD44-IgG1Fc group vs the IgG1Fc group (CD44-IgG1Fc; wells coated at 400 μg/mL, CD44-IgG1Fc or IgG1Fc at 1 μg/mL): no significant difference
Molecule: vitronectin: vitronectin (Sigma Aldrich), shares sequence homology with lubricin [reference compound]

percentage binding to CD44 of enzyme-digested rhPRG4 compared to untreated control (CD44-IgG1Fc): significantly higher
Molecule: sialidase-A and O-glycosidase-digested rhPRG4: rhPRG4 digested using a combination of sialidase A and O-glycosidase

pIC50 [2]: ~5.30
Molecule: CNC(=O)c1cc(Oc2ccc(NC(=O)Nc3ccc(Cl)c(C(F)(F)F)c3)c(F)c2)ccn1 [Regorafenib]
capacity in inhibiting cells proliferation in CD44 silenced cells compared to control cells (CD44-shRNA HCC cells): significantly reduced

Molecule: Sodium Hyaluronate [LMWHA, reference compound]
invasive growth of organoids, stimulus alone ([1]; 100 pM TGFβ, LMWHA 10, 100 or 400 μg/mL, 8-day): increase the proportion of invasive organoids
invasion of cells, stimulus alone vs untreated control (MDA-MB-231 cells): increased the proportion of invading cells

Molecule: Cc1cccc(-c2nn3c(c2-c2ccnc4ccc(C(N)=O)cc24)CCC3)n1 [LY2157299, galunisertib]
expression of lubricin in comparison to controls (lubricin (PRG4) mRNA; LY2157299 alone, 48 hours): downregulated the expression of lubricin
effect on TGFβ-enhanced expression of lubricin (lubricin (PRG4) mRNA; TGFβ plus LY2157299, 48 hours, p<0.01): offset this effect

pIC50 [2]: ~5.30
Molecule: CNC(=O)c1cc(Oc2ccc(NC(=O)Nc3ccc(Cl)c(C(F)(F)F)c3)cc2)ccn1 [Sorafenib]
capacity in inhibiting cells proliferation in CD44 silenced cells compared to control cells (CD44-shRNA HCC cells): significantly reduced

Molecule: NC(=O)c1ccc(-c2nc(-c3ccc4c(c3)OCO4)c(-c3ccccn3)[nH]2)cc1 [KI, SB431542, reference compound]
TGFβ-induced invasive growth of organoids ([1]; 100 pM TGFβ, 8-day, KI 10 μM): suppressed the TGFβ-induced invasive growth
LMWHA-induced invasive growth of organoids ([1]; LMWHA 10-400 μg/mL, 100 μg/mL rhPRG4, KI 10 μM): could not reverse the LMWHA effect
